Test results published in ChEMBL document CHEMBL5338785, “Development of Aromatic-Linked Diamino Acid Antimicrobial Peptide Mimics with Low Hemolytic Toxicity and Excellent Activity against Methicillin-Resistant Staphylococcus aureus (MRSA)” (J Med Chem, 2023).
Values after ≈ are worked out from the molar mass of the structure shown. Active and inactive are the calls of the source. No cut-off for these calls is given here.

Columns and labels:
[1] = tested on: Stenotrophomonas maltophilia; assay: Antibacterial activity against Stenotrophomonas maltophilia assessed as bacterial growth inhibition incubated for 18 hrs by CLSI protocol based Mueller-Hinton broth assay; assay type: functional
[2] = Selectivity index, ratio of HC50 for hemolytic activity in sheep RBC to MIC for antibacterial activity against methicillin-resistant Staphylococcus aureus assessed as bacterial growth inhibition; assay type: toxicity; conditions: for selectivity ratio: sheep red blood cells; for Ratio: erythrocytes
Staphylococcus aureus [3] = assay: Antibacterial activity against methicillin-resistant Staphylococcus aureus assessed as bacterial growth inhibition incubated for 18 hrs by CLSI protocol based Mueller-Hinton broth assay; assay type: functional
Escherichia coli = assay: Antibacterial activity against Escherichia coli assessed as bacterial growth inhibition incubated for 18 hrs by CLSI protocol based Mueller-Hinton broth assay; assay type: functional
Staphylococcus aureus [4] = assay: Antibacterial activity against methicillin-resistant Staphylococcus aureus clinical isolates assessed as bacterial growth inhibition incubated for 18 hrs by CLSI protocol based Mueller-Hinton broth assay; assay type: functional
Enterococcus faecalis = assay: Antibacterial activity against Enterococcus faecalis assessed as bacterial growth inhibition incubated for 18 hrs by CLSI protocol based Mueller-Hinton broth assay; assay type: functional
[5] = (§1) Hemolytic activity in sheep RBC assessed as hemolysis incubated for 1 hr by microplate reader method; assay type: toxicity, cell-based, Ovis aries, Erythrocyte; conditions: sheep red blood cells
Staphylococcus aureus [6] = assay: In vivo antibacterial activity against methicillin-resistant Staphylococcus aureus infected in SPF Kunming mouse assessed as reduction in inflammation in skin tissue at 10 mg/kg ,ip administered every 12 hrs for 3 consecutive days; assay type: functional, organism-based; conditions: time 3.0 day
Staphylococcus aureus [7] = assay: In vivo antibacterial activity against methicillin-resistant Staphylococcus aureus infected in SPF Kunming mouse assessed as reduction in amount of bacteria measure per abscess at 5 mg/kg ,ip administered every 12 hrs for 3 consecutive days; assay type: functional; conditions: time 3 day
Staphylococcus aureus [8] = assay: Bactericidal activity against methicillin-resistant Staphylococcus aureus at 3 ug/ml measured after 12 hrs by time-killing kinetics assay; assay type: functional, organism-based; conditions: dose 3.0 µg/ml
Staphylococcus aureus [9] = assay: Bactericidal activity against methicillin-resistant Staphylococcus aureus assessed as reduction in turbidity at 3 ug/ml measured after 6 hrs; assay type: functional, organism-based; conditions: dose 3.0 µg/ml
Staphylococcus aureus [10] = assay: In vivo antibacterial activity against methicillin-resistant Staphylococcus aureus infected in SPF Kunming mouse assessed as reduction in neutrophils in skin tissue at 10 mg/kg ,ip administered every 12 hrs for 3 consecutive days; assay type: functional, organism-based; conditions: time 3.0 day
[11] = Cytotoxicity against HUVEC cells assessed as reduction in cell viability incubated for 72 hrs by CCK8 assay; assay type: toxicity, cell-based; conditions: human
Erythrocyte = assay: as §1; assay type: toxicity, cell-based, Ovis aries; conditions: erythrocyte, 1 h
Staphylococcus aureus [12] = assay: Antibacterial activity against methicillin-resistant Staphylococcus aureus assessed as resistance development by measuring increase in MIC measured after 14 days by resistance development assay (reference value: 1 ug/ml); assay type: functional; conditions: 336 h, time 14 day
[13] = Stenotrophomonas maltophilia, read-out: MIC
[14] = Staphylococcus aureus, read-out: MIC
[15] = Escherichia coli, 18 h, read-out: MIC
[16] = Enterococcus faecalis, 18 h, read-out: MIC

SMILES | MIC [1, 13] [µg/mL] | selectivity ratio [2] | MIC (Staphylococcus aureus [3]; [14]) [µg/mL] | MIC (Escherichia coli; [15]) [µg/mL] | MIC (Staphylococcus aureus [4]) [µg/mL] | MIC (Enterococcus faecalis; [16]) [µg/mL] | HC50 at 1 h [5] [µg/mL] | also measured
CCCCCCN(CCCOc1cc2ccccc2cc1OCCCN(CCCCCC)C(=O)[C@@H](N)CCCCN)C(=O)[C@@H](N)CCCCN.Cl.Cl.Cl.Cl | 4 | > 1000 | 1 | 8 | 0.5 | 1 | > 1000 | 
CN[C@H](CC(C)C)C(=O)N[C@H]1C(=O)N[C@@H](CC(N)=O)C(=O)N[C@H]2C(=O)N[C@H]3C(=O)N[C@H](C(=O)N[C@H](C(=O)O)c4cc(O)cc(O)c4-c4cc3ccc4O)[C@H](O)c3ccc(c(Cl)c3)Oc3cc2cc(c3O[C@@H]2O[C@H](CO)[C@@H](O)[C@H](O)[C@H]2O[C@H]2C[C@](C)(N)[C@H](O)[C@H](C)O2)Oc2ccc(cc2Cl)[C@H]1O [VANCOMYCIN] |  |  |  |  |  |  | > 1000 | Activity (Staphylococcus aureus [6]): Active; Activity (Staphylococcus aureus [7]): 14454.4 CFU; Activity (Staphylococcus aureus [8]): Active; Activity (Staphylococcus aureus [9]): Active; Activity (Staphylococcus aureus [10]): Active
CCCCCCCN(CCCOc1ccccc1OCCCN(CCCCCCC)C(=O)[C@@H](N)CCCCN)C(=O)[C@@H](N)CCCCN.Cl.Cl.Cl.Cl | 8 | > 500 | 2 | 16 | 0.5 | 1 | > 1000 | 
CC[C@H](C)[C@H](NC(=O)CN)C(=O)NCC(=O)N[C@@H](C)C(=O)N[C@H](C(=O)N[C@@H](CC(C)C)C(=O)N[C@@H](CCCCN)C(=O)N[C@H](C(=O)N[C@@H](CC(C)C)C(=O)N[C@H](C(=O)N[C@H](C(=O)NCC(=O)N[C@@H](CC(C)C)C(=O)N1CCC[C@H]1C(=O)N[C@@H](C)C(=O)N[C@@H](CC(C)C)C(=O)N[C@H](C(=O)N[C@@H](CO)C(=O)N[C@@H](Cc1c[nH]c2ccccc12)C(=O)N[C@H](C(=O)N[C@@H](CCCCN)C(=O)N[C@@H](CCCNC(=N)N)C(=O)N[C@@H](CCCCN)C(=O)N[C@@H](CCCNC(=N)N)C(=O)N[C@@H](CCC(N)=O)C(=O)N[C@@H](CCC(N)=O)C(N)=O)[C@@H](C)CC)[C@@H](C)CC)[C@@H](C)O)[C@@H](C)O)C(C)C)C(C)C [MELITTIN] |  |  |  |  |  |  |  | CC50 at 72 h [11]: 5.8 µg/mL (≈ 2.04 µM)
CCCCCCN(CCCOc1ccc(OCCCN(CCCCCC)C(=O)[C@@H](N)CCCCN)cc1)C(=O)[C@@H](N)CCCCN.Cl.Cl.Cl.Cl | 16 | > 250 | 4 | 16 | 0.5 | 4 | > 1000 | 
CCCCCCN(CCCCOc1ccc(OCCCCN(CCCCCC)C(=O)[C@@H](N)CCCCN)cc1)C(=O)[C@@H](N)CCCCN.Cl.Cl.Cl.Cl | 4 | 217 | 4 | 4 | 0.5 | 4 | 868 | 
CCCCCCCN(CCOc1ccc(OCCN(CCCCCCC)C(=O)[C@@H](N)CCCCN)cc1)C(=O)[C@@H](N)CCCCN.Cl.Cl.Cl.Cl | 2 | 478 | 1 | 4 | 0.5 | 1 | 478 | 
CCCCCCCN(CCCOc1cccc(OCCCN(CCCCCCC)C(=O)[C@@H](N)CCCCN)c1)C(=O)[C@@H](N)CCCCN.Cl.Cl.Cl.Cl | 4 | 814 | 1 | 2 | 0.5 | 1 | 814 | 
CCCCCCCCN(CCCOc1ccc2ccccc2c1-c1c(OCCCN(CCCCCCCC)C(=O)[C@@H](N)CCCCN)ccc2ccccc12)C(=O)[C@@H](N)CCCCN.Cl.Cl.Cl.Cl (stereo in doubt; 8r) |  |  |  |  |  |  |  | MIC [1]: 4 µg/mL; Ratio [2]: 34; MIC (Staphylococcus aureus [3]): 4 µg/mL; MIC (Escherichia coli; 18 h): 4 µg/mL; MIC (Enterococcus faecalis): 2 µg/mL; HC50 (Erythrocyte): 136 µg/mL
CCn1cc(C(=O)O)c(=O)c2cc(F)c(N3CCNCC3)cc21 [NORFLOXACIN] |  |  |  |  |  |  |  | MIC (Staphylococcus aureus [12]): 128 µg/mL (≈ 401 µM)
C=C[C@]1(C)C[C@@H](OC(=O)CS[C@@H]2C[C@H]3CC[C@@H](C2)N3C)[C@]2(C)[C@H](C)CC[C@]3(CCC(=O)[C@H]32)[C@@H](C)[C@@H]1O [RETAPAMULIN] |  |  |  |  |  |  |  | CC50 at 72 h [11]: 25.5 µg/mL (≈ 49.2 µM)
CCCCCCN(CCCOc1ccc2c(OCCCN(CCCCCC)C(=O)[C@@H](N)CCCCN)cccc2c1)C(=O)[C@@H](N)CCCN.Cl.Cl.Cl.Cl | 2 | 306 | 2 | 2 | 0.5 | 2 | 612 | 
CCCCCCCN(CCCOc1ccc(OCCCN(CCCCCCC)C(=O)[C@@H](N)CCCCN)cc1)C(=O)[C@@H](N)CCCCN.Cl.Cl.Cl.Cl | 2 | 201 | 2 | 4 | 0.5 | 1 | 402 | 
CCCCCCCN(CCCOc1ccc2ccccc2c1-c1c(OCCCN(CCCCCCC)C(=O)[C@@H](N)CCCCN)ccc2ccccc12)C(=O)[C@@H](N)CCCCN.Cl.Cl.Cl.Cl (stereo in doubt; 8n) | 2 |  | 2 | 2 |  | 2 |  | Ratio [2]: 15.5; HC50 (Erythrocyte): 31 µg/mL
CCCCCCCN(CCCOc1ccc2ccccc2c1-c1c(OCCCN(CCCCCCC)C(=O)[C@@H](N)CCCCN)ccc2ccccc12)C(=O)[C@@H](N)CCCCN.Cl.Cl.Cl.Cl (stereo in doubt; 8q) |  |  |  |  |  |  |  | MIC [1]: 2 µg/mL; Ratio [2]: 3.5; MIC (Staphylococcus aureus [3]): 2 µg/mL; MIC (Escherichia coli): 2 µg/mL; MIC (Enterococcus faecalis; 18 h): 1 µg/mL; HC50 (Erythrocyte): 7 µg/mL
CCCCCCCN(CCOc1ccc(OCCN(CCCCCCC)C(=O)[C@H](C)N)cc1)C(=O)[C@H](C)N.Cl.Cl | 2 | 76 | 1 | 2 |  | 2 | 76 | 
CCCCCCN(CCCOc1ccc2ccccc2c1-c1c(OCCCN(CCCCCC)C(=O)[C@@H](N)CCCCN)ccc2ccccc12)C(=O)[C@@H](N)CCCCN.Cl.Cl.Cl.Cl (stereo in doubt; 8p) |  |  |  |  |  |  |  | MIC [1]: 1 µg/mL; Ratio [2]: 117; MIC (Staphylococcus aureus [3]): 1 µg/mL; MIC (Escherichia coli): 2 µg/mL; MIC (Enterococcus faecalis): 1 µg/mL; HC50 (Erythrocyte): 117 µg/mL
CCCCCCN(CCCOc1ccc2ccccc2c1-c1c(OCCCN(CCCCCC)C(=O)[C@@H](N)CCCCN)ccc2ccccc12)C(=O)[C@@H](N)CCCCN.Cl.Cl.Cl.Cl (stereo in doubt; 8m) | 1 | 61 | 1 | 2 |  | 1 | 61 | 
CCCCCCCCN(CCCOc1ccc(-c2ccc(OCCCN(CCCCCCCC)C(=O)[C@@H](N)CCCCN)cc2)cc1)C(=O)[C@@H](N)CCCCN.Cl.Cl.Cl.Cl | 4 | < 0.125 | 2 | 4 |  | 2 | < 0.25 | 
CCCCCCN(CCCOc1cccc(OCCCN(CCCCCC)C(=O)[C@@H](N)CCCCN)c1)C(=O)[C@@H](N)CCCCN.Cl.Cl.Cl.Cl | 8 | > 500 | 2 | 16 | 0.5 | 4 | > 1000 | 
